Key:
AKR1C3 [1] = target: T1, AKR1C3 (Homo sapiens, UniProt P42330); test: S-tetralol oxidation assay, AKR1C3; type: biochemical
T1 sequence (P42330 1-323): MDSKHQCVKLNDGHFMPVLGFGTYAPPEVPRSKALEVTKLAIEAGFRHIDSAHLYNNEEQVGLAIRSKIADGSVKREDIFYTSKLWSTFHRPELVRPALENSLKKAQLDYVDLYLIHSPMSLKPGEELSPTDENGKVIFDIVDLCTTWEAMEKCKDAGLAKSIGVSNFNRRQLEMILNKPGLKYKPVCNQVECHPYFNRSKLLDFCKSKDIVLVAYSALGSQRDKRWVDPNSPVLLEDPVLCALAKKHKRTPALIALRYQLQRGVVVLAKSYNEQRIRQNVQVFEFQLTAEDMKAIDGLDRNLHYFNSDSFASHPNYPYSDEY

COX-2 = settings: no COX-2 method in this paper, ref Duggan et al.[42], cited from earlier work
AKR1C3 [2] = target: T1, AKR1C3; test: AKR1C3 catalyzed NADPH dependent reduction of [3H]-Δ4-AD; type: biochemical
AKR1C2 = target: T2, AKR1C2 (Homo sapiens, UniProt P52895); settings: 5α-DHT reduction, <100 µM concentrations
T2 sequence (P52895 1-323): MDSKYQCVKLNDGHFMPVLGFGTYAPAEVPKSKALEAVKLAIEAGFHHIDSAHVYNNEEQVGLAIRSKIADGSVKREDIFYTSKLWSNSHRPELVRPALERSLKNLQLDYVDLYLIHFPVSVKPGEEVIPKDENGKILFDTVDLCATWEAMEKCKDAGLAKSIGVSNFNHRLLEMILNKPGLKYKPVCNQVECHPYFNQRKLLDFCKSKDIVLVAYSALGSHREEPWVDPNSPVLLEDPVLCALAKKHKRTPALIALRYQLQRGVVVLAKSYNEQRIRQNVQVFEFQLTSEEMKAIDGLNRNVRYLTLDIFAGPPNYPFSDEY

AKR1C3 [3] = target: T1, AKR1C3; test: Radiometric assay of androgen metabolism; type: cell-based; settings: LNCaP-AKR1C3 cells, 100 nM Δ4-AD, 30 µM compound, 48 h
[4] = test system: PSA expression in LNCaP-AKR1C3 cells; test: Δ4-AD induced PSA expression in LNCaP-AKR1C3 cells; type: cell-based; settings: 100 nM Δ4-AD, 30 µM compound, 24 h

CC(C(=O)O)c1ccc2cc(S(C)(=O)=O)ccc2c1 (racemic) [(±)-11, 2-(6-(Methylsulfonyl)naphthalen-2-yl)propanoic Acid]
loss of inhibitory potency on AKR1C3 compared to 9 (AKR1C3 [1]; S-tetralol oxidation): greater than 15 fold

CSc1ccc2cc(C(C)C(=O)O)ccc2c1 (racemic) [(±)-9, 2-(6-(Methylthio)naphthalen-2-yl)propanoic Acid]
increase in the inhibitory potency for AKR1C3 over that seen with naproxen (AKR1C3 [1]; S-tetralol oxidation): 3 fold

CC[C@H](C(=O)O)c1ccc2cc(OC)ccc2c1 [(S)-14b]
COX-2 IC50 (µM) (COX-2): no inhibition ^a

COc1ccc2cc([C@@H](C)C(=O)O)ccc2c1 [R-naproxen (1a), reference compound]
IC50 (COX-2; read-out: COX-2 IC50): > 25 µM

CC[C@@H](C(=O)O)c1ccc2cc(OC)ccc2c1 [(R)-14a, (R)-2-(6-methoxynaphthalen-2-yl)butanoic acid]
mode of AKR1C3 inhibition (AKR1C3 [2]): same mode of inhibition
inhibition of AKR1C2 (AKR1C2): did not display any significant inhibition
COX-2 IC50 (µM) (COX-2): no inhibition ^a
production of [3H]-testosterone glucuronide (AKR1C3 [3]): significantly inhibited
mode of AKR1C3 inhibition (AKR1C3 [1]; oxidation of S-tetralol): competitively inhibited
Δ4-AD induced increase in PSA expression [4]: reduced

CC(C(=O)O)c1ccc2cc([S+](C)[O-])ccc2c1 (racemic) [(±)-10, 2-(6-(Methylsulfinyl)naphthalen-2-yl)propanoic Acid]
loss of inhibitory potency on AKR1C3 compared to 9 (AKR1C3 [1]; S-tetralol oxidation): greater than 15 fold

From PMC5149398 (Journal of medicinal chemistry, 2016)
